Laboratory results from patent US12252701B2, “Chimeric antigen receptor T cell therapy” (KITE PHARMA, INC., priority 2020, dated 2025).
Where two headings read alike, the source gives them in different places.

Key:
[1] = tested on: NALM6.GFP.LUC.CD19 target cells; experiment: Serial killing assay; format: cell-based, human
Method: CD19 CAR-T cells were thawed in RPMI media supplemented with HEPES, Penicillin/Streptomycin/L-Glutamine and 10% FBS and rested overnight. The following day, drugs were serially diluted and prepared in 96-well plates. Rested T cells were counted and normalized so that 25,000 or 8,333 T cells were plated with 25,000 NALM6.GFP.LUC.CD19 target cells (1:1 or 1:3 Effector:Target ratio) in the prepared 96-well plates. At 16 hour post-incubation and every 3-4 days, T cell killing of targets was measured via luciferase detection. D-luciferin substrate was added to the co-culture wells at a final concentration of 0.14 mg/mL and plates were incubated at 37° C. in the dark for 10 minutes. Luminescent signal was read immediately after in a VarioSkan™ LUX microplate reader. T cell-mediated cytotoxicity was calculated as follows: % Cytotoxicity=[1−luciferase signal of (sample of interest/target alone control)]*100. Afterwards, co-cultures were stained with LIVE/DEAD and antibodies against CD4, CD8 and KIP-1 and then washed. Cells were then analyzed and quantified via the Attune NxT flow cytometer. T cells were then repeatedly stimulated with fresh 25,000 target cells, and this process was repeated every 3-4 days.

[2] = tested on: phospho-STAT-1, -3 and -5 in purified CD14+ monocytes; experiment: Intracellular phospho-STAT-1, -3, -5 by BD PhosphoFlow in purified monocytes; format: cell-based, human; settings: for Monocyte-specific pSTAT1 signaling, inhibition / Monocyte-specific pSTAT3 signaling, inhibition / Monocyte-specific pSTAT5 signaling, inhibition: purified CD14+ monocytes
Method: Further experiments were performed to look at impacts of JAK inhibitors on STAT phosphorylation in various immune cell subsets.

[3] = cited from earlier work
CAR-T cells = experiment: CAR-T cell expansion assay (KIP-1 or CD3/CD28 stimulation)
Method: 96-well plates were coated with 100 μl of KIP-1 antibody per well at 1 μg/ml in PBS and plates were incubated at 4° C. overnight. CAR-T cells were thawed and were rested in ImmunoCult expansion medium and incubated overnight at 37° C. Cells were then counted and resuspended at 2 million cells/ml and seed at 200,000 cells per well in 100 μl of expansion medium with 10 ng/ml recombinant IL2. For groups treated with KIP-1, 100 μl of expansion medium were added with 2× final drug dilutions. For CD3/CD28 treated groups, 100 μl of expansion media were added with 2× final drug dilutions containing 25 μl/ml of CD3/CD28 T cell activator from StemCell Technologies. Cells were then incubated at 37° C. After 4 days, cells were counted and diluted 1 to 8-fold in expansion media and then transferred to a 24-well plate. Cell counts were repeated at day 7 and transferred to T25 flasks. On day 11, all cells were harvested and counted.

[4] = tested on: NALM6.GFP.LUC.CD19 target cells; experiment: Serial killing assay of CAR-T, percent cytotoxicity by luciferase detection; settings: repeat stimulation rounds
CD19 CAR T cells = experiment: CAR T cell cytokine production (Luminex) under CD19 K562, KIP-1 or CD2/3/28 stimulation
Method: Cryopreserved healthy donor CLP CD19 CAR T cells were thawed and rested overnight in 100 U/ml of IL-2 at 1×10^6/ml. 2.5×10^5 CD19 CART cells were plated in 96-well RB plate wells in a total volume of 200 μl of R10 culture media. […] CD19 CART cell cytokine production was allowed to proceed through 72 hours in the presence of stimulator and JAKi or steroid. Following 72 h of culture, 100 μl of the cell supernatant of each well were harvested and stored at −80° C. for later Luminex/Bioplex-200 cytokine analysis. Briefly, stored supernatants were thawed and 50 μl of the sample was assayed for cytokines using a ThermoFisher Procarta Plex 19-plex human cytokine assay kit (ThermoFisher, Carlsbad, CA) according to kit manufacturer's instructions and detected using a BioRad Bioplex-200 instrument. The data points generated from the luminex cytokine assay were transferred to a GraphPad PRISM IC50 dose-response curve analysis to generate IC50 or potency values for the JAKi's and steroids tested.

[5] = E:T ratio 1:3, all doses tested
[6] = CAR T cell-derived supernatant, 30 min
[7] = purified monocytes, CAR T derived cytokines/supernatant stimulation, 30 min

Structure (SMILES): Nc1nc2cccc(-c3ccc(CN4CCS(=O)(=O)CC4)cc3)n2n1 [GS-829845]
- T-cell counts ([1]; E:T ratio 1:1): increased T-cell counts in a dose-dependent manner
- serial killing ([1]; E:T ratio 1:1): enhanced serial killing
- T-cell counts [1, 5]: no negative impacts were observed
- serial killing [1, 5]: no negative impacts
- Monocyte-specific pSTAT1 signaling, inhibition [2, 6]: 32%
- Monocyte-specific pSTAT3 signaling, inhibition [2, 6]: 80%
- Monocyte-specific pSTAT5 signaling, inhibition [2, 6]: 3%
- Monocyte-specific pSTAT1 signaling, inhibition ([2]; rh-GM-CSF-induced): na/ni
- Monocyte-specific pSTAT3 signaling, inhibition ([2]; rh-GM-CSF-induced): na/ni
- Monocyte-specific pSTAT5 signaling, inhibition ([2]; rh-GM-CSF-induced): 0%
- Monocyte-specific pSTAT1 signaling, inhibition ([2]; rhIFNg-induced): 61%
- Monocyte-specific pSTAT3 signaling, inhibition ([2]; rhIFNg-induced): 100%
- Monocyte-specific pSTAT5 signaling, inhibition ([2]; rhIFNg-induced): 100%
- Monocyte-specific pSTAT1 signaling, inhibition ([2]; rhIL6-induced): na/ni
- Monocyte-specific pSTAT3 signaling, inhibition ([2]; rhIL6-induced): 33%
- Monocyte-specific pSTAT5 signaling, inhibition ([2]; rhIL6-induced): na/ni
- pSTAT1 inhibition [2, 7]: 32%
- pSTAT3 inhibition [2, 7]: 80%
- Cmax ([3]; clinical dosing, patient sera, repeat dose studies): 3540 ng/mL
- Protein binding ([3]; plasma protein binding, reported): ~58%
- % viability (CAR-T cells; CD3/CD28, dose 1000 nM, day 0): 75%
- % viability (CAR-T cells; CD3/CD28, dose 1000 nM, day 4): 55.6%
- % viability (CAR-T cells; CD3/CD28, dose 1000 nM, day 8): 76.2%
- % viability (CAR-T cells; CD3/CD28, dose 1000 nM, day 12): 88.9%
- % viability (CAR-T cells; CD3/CD28, dose 5000 nM, day 0): 75%
- % viability (CAR-T cells; CD3/CD28, dose 5000 nM, day 4): 56.5%
- % viability (CAR-T cells; CD3/CD28, dose 5000 nM, day 8): 75.6%
- % viability (CAR-T cells; CD3/CD28, dose 5000 nM, day 12): 88.8%
- % viability (CAR-T cells; KIP-1, dose 1000 nM, day 0): 75%
- % viability (CAR-T cells; KIP-1, dose 1000 nM, day 4): 48.4%
- % viability (CAR-T cells; KIP-1, dose 1000 nM, day 8): 63%
- % viability (CAR-T cells; KIP-1, dose 1000 nM, day 12): 82.5%
- % viability (CAR-T cells; KIP-1, dose 5000 nM, day 0): 75%
- % viability (CAR-T cells; KIP-1, dose 5000 nM, day 4): 60%
- % viability (CAR-T cells; KIP-1, dose 5000 nM, day 8): 87%
- % viability (CAR-T cells; KIP-1, dose 5000 nM, day 12): 81.1%
- effect on T cell expansion (CAR-T cells; at the doses tested (Table 40)): little to no effect
- impact on CAR-T serial killing (percent cytotoxicity) ([4]; E:T of 1:1, dose titration): enhance serial killing
- impact on CAR-T serial killing (percent cytotoxicity) ([4]; E:T of 1:3, dose titration): no impact
- suppression of cytokine production from CAR T cells (breadth and magnitude) (CD19 CAR T cells): weaker in activity compared to filgotinib and other JAK inhibitors
- Suppression of cytokine production, IL-6 (IC50) (CD19 CAR T cells; CD3/CD28 stimulation, 72 h): Suppress
- Suppression of cytokine production, MCP-1 (IC50) (CD19 CAR T cells; CD3/CD28 stimulation, 72 h): Suppress
- Suppression of cytokine production, TNFa (IC50) (CD19 CAR T cells; CD3/CD28 stimulation, 72 h): Suppress
- Suppression of cytokine production, IL-6 (IC50) (CD19 CAR T cells; K562-CD19 stimulation, 72 h): Suppress
- Suppression of cytokine production, MCP-1 (IC50) (CD19 CAR T cells; K562-CD19 stimulation, 72 h): Suppress
- Suppression of cytokine production, MIG (IC50) (CD19 CAR T cells; K562-CD19 stimulation, 72 h): Suppress
- Suppression of cytokine production, TNFa (IC50) (CD19 CAR T cells; K562-CD19 stimulation, 72 h): Suppress
- Suppression of cytokine production, IL-6 (IC50) (CD19 CAR T cells; KIP-1 stimulation, 72 h): Suppress
- Suppression of cytokine production, MCP-1 (IC50) (CD19 CAR T cells; KIP-1 stimulation, 72 h): Suppress
- Suppression of cytokine production, TNFa (IC50) (CD19 CAR T cells; KIP-1 stimulation, 72 h): Suppress
- IC50 (CD19 CAR T cells; read-out: Suppression of cytokine production, GMCSF (IC50), CD3/CD28 stimulation, 72 h): > 10 µM
- IC50 (CD19 CAR T cells; read-out: Suppression of cytokine production, GMCSF (IC50), K562-CD19 stimulation, 72 h): > 10 µM
- IC50 (CD19 CAR T cells; read-out: Suppression of cytokine production, GMCSF (IC50), KIP-1 stimulation, 72 h): > 10 µM
- IC50 (CD19 CAR T cells; read-out: Suppression of cytokine production, GzB (IC50), CD3/CD28 stimulation, 72 h): > 10 µM
- IC50 (CD19 CAR T cells; read-out: Suppression of cytokine production, GzB (IC50), K562-CD19 stimulation, 72 h): > 10 µM
- IC50 (CD19 CAR T cells; read-out: Suppression of cytokine production, GzB (IC50), KIP-1 stimulation, 72 h): > 10 µM
- IC50 (CD19 CAR T cells; read-out: Suppression of cytokine production, IFNg (IC50), CD3/CD28 stimulation, 72 h): > 10 µM
- IC50 (CD19 CAR T cells; read-out: Suppression of cytokine production, IFNg (IC50), K562-CD19 stimulation, 72 h): > 10 µM
- IC50 (CD19 CAR T cells; read-out: Suppression of cytokine production, IFNg (IC50), KIP-1 stimulation, 72 h): > 10 µM
- IC50 (CD19 CAR T cells; read-out: Suppression of cytokine production, IL-2Ra (IC50), CD3/CD28 stimulation, 72 h): 4.74 µM
- IC50 (CD19 CAR T cells; read-out: Suppression of cytokine production, IL-2Ra (IC50), K562-CD19 stimulation, 72 h): > 10 µM
- IC50 (CD19 CAR T cells; read-out: Suppression of cytokine production, IL-2Ra (IC50), KIP-1 stimulation, 72 h): > 10 µM
- IC50 (CD19 CAR T cells; read-out: Suppression of cytokine production, IL-8 (IC50), CD3/CD28 stimulation, 72 h): > 10 µM
- IC50 (CD19 CAR T cells; read-out: Suppression of cytokine production, IL-8 (IC50), K562-CD19 stimulation, 72 h): > 10 µM
- IC50 (CD19 CAR T cells; read-out: Suppression of cytokine production, IL-8 (IC50), KIP-1 stimulation, 72 h): > 10 µM
- IC50 (CD19 CAR T cells; read-out: Suppression of cytokine production, IL-10 (IC50), K562-CD19 stimulation, 72 h): 4.01 µM
- IC50 (CD19 CAR T cells; read-out: Suppression of cytokine production, IL-10 (IC50), KIP-1 stimulation, 72 h): 3.93 µM
- IC50 (CD19 CAR T cells; read-out: Suppression of cytokine production, MIG (IC50), CD3/CD28 stimulation, 72 h): > 10 µM
- IC50 (CD19 CAR T cells; read-out: Suppression of cytokine production, MIG (IC50), KIP-1 stimulation, 72 h): > 10 µM
- IC50 (CD19 CAR T cells; read-out: Suppression of cytokine production, MIP-1a (IC50), CD3/CD28 stimulation, 72 h): > 10 µM
- IC50 (CD19 CAR T cells; read-out: Suppression of cytokine production, MIP-1a (IC50), K562-CD19 stimulation, 72 h): > 10 µM
- IC50 (CD19 CAR T cells; read-out: Suppression of cytokine production, MIP-1a (IC50), KIP-1 stimulation, 72 h): > 10 µM
- IC50 (CD19 CAR T cells; read-out: Suppression of cytokine production, MIP-1b (IC50), CD3/CD28 stimulation, 72 h): > 10 µM
- IC50 (CD19 CAR T cells; read-out: Suppression of cytokine production, MIP-1b (IC50), K562-CD19 stimulation, 72 h): > 10 µM
- IC50 (CD19 CAR T cells; read-out: Suppression of cytokine production, MIP-1b (IC50), KIP-1 stimulation, 72 h): > 10 µM
- IC50 (CD19 CAR T cells; read-out: Suppression of cytokine production, Perforin (IC50), CD3/CD28 stimulation, 72 h): > 10 µM
- IC50 (CD19 CAR T cells; read-out: Suppression of cytokine production, Perforin (IC50), K562-CD19 stimulation, 72 h): > 10 µM
- IC50 (CD19 CAR T cells; read-out: Suppression of cytokine production, Perforin (IC50), KIP-1 stimulation, 72 h): > 10 µM
